Assay results reported in patent US6340694B1, “Diarylbenzopyran derivatives as cyclooxygenase-2 inhibitors” (Pacific Corporation, priority 1998, dated 2002).

Tests used:
COX-2 = biological target: T1, COX-2 (Mus musculus, UniProt Q05769); test: Evaluation of COX-2's inhibition efficacy (PGE2 radioimmuno assay, LPS-induced, aspirin-pretreated peritoneal macrophages); assay type: cell-based, C57BL/6 mouse; settings: for inhibition at 1 µg/mL: 1 μg/ml; for inhibition at 10 µg/mL: 10 μg/ml; for inhibition at 0.1 µg/mL: 0.1 μg/ml
T1 construct: endogenous in cells; host or cells: peritoneal macrophages of C57BL/6 mouse, aspirin-pretreated, LPS-induced
T1 sequence (Q05769 18-604): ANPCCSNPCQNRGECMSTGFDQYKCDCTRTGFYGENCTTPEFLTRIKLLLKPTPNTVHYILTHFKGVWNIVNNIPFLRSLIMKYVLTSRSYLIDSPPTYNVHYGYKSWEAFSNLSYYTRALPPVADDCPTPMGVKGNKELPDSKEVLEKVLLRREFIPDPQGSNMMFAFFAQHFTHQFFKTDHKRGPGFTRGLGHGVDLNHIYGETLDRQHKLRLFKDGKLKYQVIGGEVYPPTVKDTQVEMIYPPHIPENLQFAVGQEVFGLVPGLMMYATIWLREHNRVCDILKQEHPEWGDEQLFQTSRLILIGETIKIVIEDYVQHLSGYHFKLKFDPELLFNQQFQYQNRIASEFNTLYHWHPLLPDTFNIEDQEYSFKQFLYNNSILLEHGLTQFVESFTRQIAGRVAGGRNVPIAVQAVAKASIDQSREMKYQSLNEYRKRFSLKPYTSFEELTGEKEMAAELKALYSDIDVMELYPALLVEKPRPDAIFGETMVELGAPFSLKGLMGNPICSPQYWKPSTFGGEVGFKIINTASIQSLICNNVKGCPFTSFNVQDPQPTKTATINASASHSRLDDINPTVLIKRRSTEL
Description: Regarding the compounds in the above Examples and indomethacin, the inhibition efficacy of COX-2 and COX-1 are being measured by the following two methods. […] Evaluation of COX-2's Inhibition Efficacy (J. Pharmacol. Exp. […] After cleaning C57BL/6 mouse's abdomen by 70% EtOH, the skin of mouse's abdomen was eliminated cautiously not to harm peritomeum and 5 ml of cold PBS was poured into the abdominal cavity and in certain times later macrophage-bleeding abdominal-liquid was collected by syringe. […] After putting 1 ml cell suspension having cell number of 1×10^6 cells/mu into each 24-well microtiter plates, macrophages were adhered to the bottom of plate by culturing in the condition of 5% CO2/95% O2, at a temperature of 37° C. for 2 hours. Other cells not being adhered to were eliminated by washing two times with PBS. The purity of macrophages obtained through this process was identified by differential counting. […] After inducing COX-2 by LPS, the cell culture medium was eliminated and macrophages was washed two times with PBS. And 1 ml of RRPI-1640 badge was added to each well again and after treating them with sample with appropriate concentration, they were cultured at a temperature of 37i É for 10 minutes. And then treated them with arachidonic acid to make their final concentration as 10 μM and cultured them additional 10 minutes, all the supernatant liquid of reaction was obtained. The amount of PGE2 produced in the supernatant liquid of reaction was determined by the PGE2 radioimmuno assay.

COX-1 = biological target: T2, COX-1 (Mus musculus, UniProt P22437); test: Evaluation of COX-1's inhibition efficacy (macrophages without aspirin and LPS pre-treatment); assay type: cell-based, C57BL/6 mouse; settings: for inhibition at 10 µg/mL: 10 μg/ml; for inhibition at 1 µg/mL: 1 μg/ml
T2 construct: there is no pre-treatment of aspirin and LPS in the adhesion of macrophage; endogenous in cells; host or cells: peritoneal macrophages of C57BL/6 mouse, without aspirin and LPS pre-treatment
T2 sequence (P22437 27-602): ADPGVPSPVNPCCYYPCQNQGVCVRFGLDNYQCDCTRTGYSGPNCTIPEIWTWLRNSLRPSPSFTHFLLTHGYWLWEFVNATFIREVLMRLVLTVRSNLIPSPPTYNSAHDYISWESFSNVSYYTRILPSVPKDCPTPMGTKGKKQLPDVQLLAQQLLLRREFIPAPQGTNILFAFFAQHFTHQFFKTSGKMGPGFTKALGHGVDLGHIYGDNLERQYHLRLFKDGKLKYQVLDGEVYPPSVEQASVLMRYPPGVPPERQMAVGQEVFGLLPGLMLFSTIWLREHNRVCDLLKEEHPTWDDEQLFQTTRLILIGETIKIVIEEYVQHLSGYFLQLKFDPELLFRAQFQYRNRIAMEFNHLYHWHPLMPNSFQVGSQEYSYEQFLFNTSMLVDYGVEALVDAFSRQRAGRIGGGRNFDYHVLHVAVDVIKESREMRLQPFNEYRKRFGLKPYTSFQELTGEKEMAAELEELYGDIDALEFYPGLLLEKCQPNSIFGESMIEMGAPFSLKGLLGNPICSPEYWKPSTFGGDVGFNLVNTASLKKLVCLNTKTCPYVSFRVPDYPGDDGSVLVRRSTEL
Description: Regarding the compounds in the above Examples and indomethacin, the inhibition efficacy of COX-2 and COX-1 are being measured by the following two methods.
After cleaning C57BL/6 mouse's abdomen by 70% EtOH, the skin of mouse's abdomen was eliminated cautiously not to harm peritomeum and 5 ml of cold PBS was poured into the abdominal cavity and in certain times later macrophage-bleeding abdominal-liquid was collected by syringe. By adding RPMI-1640 badge containing penicillin(100 unit/mt) and streptomycin([…]) to cell pellet obtained by centrifugation of collected liquid about 5 minutes in 1500 rpm, it was disperesed and also COX-1 existing in the cell was inactivated by treating with 500 μM aspirin. After putting 1 ml cell suspension having cell number of 1×10^6 cells/mu into each 24-well microtiter plates, macrophages were adhered to the bottom of plate by culturing in the condition of 5% CO2/95% O2, at a temperature of 37° C. for 2 hours. Other cells not being adhered to were eliminated by washing two times with PBS. The purity of macrophages obtained through this process was identified by differential counting. After adding RPMI-1640 badge(normally 5×10^5 cell/ml) containing 3% right fetal blood serum to macrophage and treating it with LPS(lipopolysaccharide) to make final concentration as 10 μg/ml, it was cultured in the condition of 5% CO2, at a temperature of 37° C. for 16 hours. After inducing COX-2 by LPS, the cell culture medium was eliminated and macrophages was washed two times with PBS. And 1 ml of RRPI-1640 badge was added to each well again and after treating them with sample with appropriate concentration, they were cultured at a temperature of 37i É for 10 minutes. And then treated them with arachidonic acid to make their final concentration as 10 μM and cultured them additional 10 minutes, all the supernatant liquid of reaction was obtained. The amount of PGE2 produced in the supernatant liquid of reaction was determined by the PGE2 radioimmuno assay. The 100% COX-2's activation is referenced by the difference of the amount of PGE2 produced in the supernatant liquid of reaction between with 10 μM arachidonic acid treatment and without 10 μM arachidonic acid treatment.
2. Evaluation of COX-1's Inhibition Efficacy
Following the same procedure as the above evaluation of COX-2's inhibition efficacy, but there is no pre-treatment of aspirin and LPS in the adhesion of macrophage.

Row | inhibition at 1 µg/mL (COX-2) | inhibition at 10 µg/mL (COX-2) | inhibition at 10 µg/mL (COX-1) | melting point | inhibition at 0.1 µg/mL (COX-2) | inhibition at 1 µg/mL (COX-1) | SMILES
1 | 51% | 86% | 18% | 226 to 227 °C |  |  | COc1ccc(-c2c(-c3ccc(S(C)(=O)=O)cc3)oc3ccccc3c2=O)cn1 [Example 18, 3-(2-Methoxy-5-pyridinyl)-2-(4-(methylsulfonyl)phenyl)-4H-1-benzopyran-4-one]
2 | 29% | 69% | < 5% | 196 to 198 °C | 6% |  | CS(=O)(=O)c1ccc(-c2oc3ccccc3c(=S)c2-c2cccc(Cl)c2)cc1 [Example 40, 3-(3-Chlorophenyl)-2-(4-(methylsulfonyl)phenyl)-4H-1-benzopyran-4-thione]
3 | 36% | 96% | < 5% | 234 °C | < 5% |  | Cc1ccccc1-c1c(-c2ccc(S(C)(=O)=O)cc2)oc2ccccc2c1=S [Example 41, 3-(2-Methylphenyl)-2-(4-(methylsulfonyl)phenyl)-4H-1-benzopyran-4-thione]
4 | 96% | 99% | 67% | 267 to 268 °C | 73% | 62% | NS(=O)(=O)c1ccc(-c2oc3ccccc3c(=O)c2-c2ccc(F)cc2)cc1 [Example 52, 2-(4-(Aminosulfonyl)phenyl)-3-(4-fluorophenyl)-4H-1-benzopyran-4-one]
5 | 96% |  | 75% | 215 to 217 °C | 48% |  | NS(=O)(=O)c1ccc(-c2oc3ccccc3c(=O)c2-c2ccc(Cl)c(Cl)c2)cc1 [Example 57, 2-(4-(Aminosulfonyl)phenyl)-3-(3,4-dichlorophenyl)-4H-1-benzopyran-4-one]

Second part, the compound before the results:

Row | SMILES | inhibition at 1 µg/mL (COX-2) | inhibition at 10 µg/mL (COX-2) | inhibition at 10 µg/mL (COX-1) | melting point | inhibition at 0.1 µg/mL (COX-2) | inhibition at 1 µg/mL (COX-1)
6 | CS(=O)(=O)c1ccc(-c2oc3ccccc3c(=O)c2-c2cncc(Br)c2)cc1 [Example 19, 3-(5-Bromo-3-pyridinyl)-2-(4-(methylsulfonyl)phenyl)-4H-1-benzopyran-4-one] | 18% | 35% | 11% | 197 to 199 °C |  | 
7 | Cc1ccc(-c2c(-c3ccc(S(C)(=O)=O)cc3)oc3ccccc3c2=O)cn1 [Example 20, 3-(2-Methyl-5-pyridinyl)-2-(4-(methylsulfonyl)phenyl)-4H-1-benzopyran-4-one] | < 5% | 85% | < 5% | 195 to 196 °C |  | 
8 | CS(=O)(=O)c1ccc(-c2oc3ccccc3c(=O)c2-c2ccc(C(F)(F)F)nc2)cc1 [Example 21, 2-(4-(Methylsulfonyl)phenyl)-3-(2-trifluoromethyl-5-pyridinyl)-4H-1-benzopyran-4-one] | 35% | 55% | < 5% | 215 to 217 °C |  | 
9 | NS(=O)(=O)c1ccc(-c2oc3ccc(F)cc3c(=O)c2-c2ccc(F)cc2)cc1 [Example 48, 2-(4-(Aminosulfonyl)phenyl)-6-fluoro-3-(4-fluorophenyl)-4H-1-benzopyran-4-one] | 100% |  | 48% | 224 to 226 °C | 63% | 36%
10 | NS(=O)(=O)c1ccc(-c2oc3ccc(F)cc3c(=O)c2-c2cccc(F)c2)cc1 [Example 51, 2-(4-(Aminosulfonyl)phenyl)-6-fluoro-3-(3-fluorophenyl)-4H-1-benzopyran-4-one] | 83% | 100% | 6% | 257 to 258 °C | 56% | 
11 | NS(=O)(=O)c1ccc(-c2oc3ccccc3c(=O)c2-c2ccccc2)cc1 [Example 53, 2-(4-(Aminosulfonyl)phenyl)-3-phenyl-4H-1-benzopyran-4-one] | 90% | 92% | 61% | 218 to 220 °C | 76% | 52%
12 | COc1ccc(-c2c(-c3ccc(S(N)(=O)=O)cc3)oc3ccccc3c2=O)cc1 [Example 55, 2-(4-(Aminosulfonyl)phenyl)-3-(4-methoxyphenyl)-4H-1-benzopyran-4-one] | 90% | 100% | 84% | 252 to 254 °C |  | 66%
13 | NS(=O)(=O)c1ccc(-c2oc3ccccc3c(=O)c2-c2ccccc2F)cc1 [Example 58, 2-(4-(Aminosulfonyl)phenyl)-3-(2-fluorophenyl)-4H-1-benzopyran-4-one] | 63% | 96% | 60% | 215 to 217 °C |  | 34%
